The source of these data is patent US20200339651A1, “METHODS FOR B CELL PRECONDITIONING IN CAR THERAPY” (Novartis AG, priority 2014, published 2020).

One data set concerns huCART19 cells. Kind of data set: CART proliferation in 4 day co-culture with Nalm-6 cells in the presence of RAD001. In kind it is cell-based, human. From the text: A humanized, anti-human CD19 CAR (huCART19) lentiviral transfer vector was used to produce the genomic material packaged into VSVg pseudotyped lentiviral particles. The amino acid and nucleotide sequence of the humanized anti-human CD19 CAR (huCART19) is CAR 1, ID 104875 described in PCT publication, WO2014/153270, filed Mar. 15, 2014, and is designated SEQ ID NOs. 85 and 31 therein.
Lentiviral transfer vector DNA is mixed with the three packaging components VSVg env, gag/pol and rev in combination with lipofectamine reagent to transfect Lenti-X 293T cells. Medium is changed after 24 h and 30 h thereafter, the virus-containing media is collected, filtered and stored at −80° C. CARTs are generated by transduction of fresh or frozen naïve T cells obtained by negative magnetic selection of healthy donor blood or leukopak. T cells are activated by incubation with anti-CD3/anti-CD28 beads for 24 h, after which viral supernatant or concentrated virus (MOI=2 or 10, respectively) is added to the cultures. The modified T cells are allowed to expand for about 10 days. The percentage of cells transduced (expressing the CARs on the cell surface) and the level of CAR expression (relative fluorescence intensity, Geo Mean) are determined by flow cytometric analysis between days 7 and 9. The combination of slowing growth rate and T cell size approaching ˜350 fL determines the state for T cells to be cryopreserved for later analysis.
To evaluate the functionality of CARTs, the T cells are thawed and counted, and viability is assessed by Cellometer. The number of CAR-positive cells in each culture is normalized using non-transduced T cells (UTD). The impact of RAD001 on CARTs was tested in titrations with RAD001, starting at 50 nM. The target cell line used in all co-culture experiments is Nalm-6, a human pre-B cell acute lymphoblastic leukemia (ALL) cell line expressing CD19 and transduced to express luciferase.
For measuring the proliferation of CARTs, T cells are cultured with target cells at a ratio of 1:1. […] The number of T cells is assessed by flow cytometry using counting beads as reference.

Another data set deals with huCAR19 CAR T cells. As to the kind of experiment: In vivo proliferation of humanized CD19 CART cells with and without RAD001 dosing. Details: species or system NSG mice. The procedure: Circles denote PBS; squares denote huCTL019; triangles denote huCTL019 with 3 mg/kg RAD001; inverted triangles denote huCTL019 with 0.3 mg/kg RAD001; diamonds denote huCTL019 with 0.03 mg/kg RAD001; and circles denote huCTL019 with 0.003 mg/kg RAD001.
Mice were administered 5×10^6 CAR T cells 7 days after tumor implantation. Cells were partially thawed in a 37 degree Celsius water bath and then completely thawed by the addition of 1 ml of cold sterile PBS to the tube containing the cells. The thawed cells were transferred to a 15 ml falcon tube and adjusted to a final volume of 10 mls with PBS. The cells were washed twice at 1000 rpm for 10 minutes each time and then counted on a hemocytometer. T cells were then resuspended at a concentration of 50×10^6 CAR T cells per ml of cold PBS and kept on ice until the mice were dosed. The mice were injected intravenously via the tail vein with 100 μl of the CAR T cells for a dose of 5×10^6 CAR T cells per mouse. Eight mice per group were treated either with 100 μl of PBS alone (PBS), or humanized CD19 CAR T cells.
(§1) A concentrated micro-emulsion of 50 mg equal to 1 mg RAD001 was formulated and then resuspended in D5W (dextrose 5% in water) at the time of dosing. Mice were orally dosed daily (via oral gavage) with 200 μl of the desired doses of RAD001.
Based on these doses, huCAR19 CAR T cells were dosed with and without RAD001 to determine the proliferative ability of these cells. The highest dose used was 3 mg/kg based on the levels of RAD001 in the blood 24 hours after dosing. As the concentration of RAD001 was above 10 nM 24 hours after the final dose of RAD001, several lower doses of RAD001 were used in the in vivo study with CAR T cells. The CAR T cells were dosed IV one day prior to the start of the daily oral RAD001 dosing. Mice were monitored via FACS for T cell expansion.

The subject of another data set is NALM6-luc tumors. As to the kind of experiment: NALM6-luc tumor growth in NSG mice with daily RAD001 dosing. In kind it is in vivo. The conditions noted are these: daily oral dosing of RAD001 alone at 0.3, 1, 3, and 10 mg/kg. The method, then:
FIG. 8 depicts tumor growth measurements of NALM6-luc cells with daily RAD001 dosing at 0.3, 1, 3, and 10 mg/kg (mpk) or vehicle dosing. Circles denote the vehicle; squares denote the 10 mg/kg dose of RAD001; triangles denote the 3 mg/kg dose of RAD001, inverted triangles denote the 1 mg/kg dose of RAD001; and diamonds denote the 0.3 mg/kg dose of RAD001.
The NALM6 human acute lymphoblastic leukemia (ALL) cell line was developed from the peripheral blood of a patient with relapsed ALL. The cells were then tagged with firefly luciferase. These suspension cells grow in RPMI supplemented with 10% heat inactivated fetal bovine serum.
6 week old NSG (NOD.Cg-Prkdc^scidIl2rg^tm1Wjl/SzJ) mice were received from the Jackson Laboratory (stock number 005557).
NALM6-luc cells were grown and expanded in vitro in RPMI supplemented with 10% heat inactivated fetal bovine serum. The cells were then transferred to a 15 ml conical tube and washed twice with cold sterile PBS. NALM6-luc cells were then counted and resuspended at a concentration of 10×10^6 cells per milliliter of PBS. The cells were placed on ice and immediately (within one hour) implanted in the mice. NALM6-luc cells were injected intravenously via the tail vein in a 100 μl volume, for a total of 1×10^6 cells per mouse. […]

Data set [1] is described as follows: Pharmacokinetics of RAD001 in the blood of NSG mice with NALM6 tumors. In kind it is in vivo. The procedure:
Diamonds denote the […] dose of RAD001; squares denote the 1 mg/kg dose of RAD001; triangles denote the 3 mg/kg dose of RAD001; and x's denote the 10 mg/kg dose of RAD001.
as §1
Mice were dosed daily with RAD001 starting 7 days post tumor implantation. Dosing groups were as follows: 0.3 mg/kg, 1 mg/kg, 3 mg/kg, and 10 mg/kg. Mice were bled on days 0 and 14 following the first and last dose of RAD001, at the following time points for PK analysis: 15 minutes, 30 minutes, 1 hour, 2 hours, 4 hours, 8 hours, 12 hours, and 24 hours.

Take `CO[C@H]1C[C@@H]2CC[C@@H](C)[C@@](O)(O2)C(=O)C(=O)N2CCCC[C@H]2C(=O)O[C@H]([C@H](C)C[C@@H]2CC[C@@H](OCCO)[C@H](OC)C2)CC(=O)[C@H](C)/C=C(\C)[C@@H](O)[C@@H](OC)C(=O)[C@H](C)C[C@H](C)/C=C/C=C/C=C/1C` [RAD001, (1R,9S,12S,15R,16E,18R,19R,21R,23S,24E,26E,28E,30S,32S,35R)-1,18-dihydroxy-12-{(1R)-2-[(1S,3R,4R)-4-(2-hydroxyethoxy)-3-methoxycyclohexyl]-1-methylethyl}-19,30-dimethoxy-15,17,21,23,29,35-hexamethyl-11,36-dioxa-4-aza-tricyclo[30.3.1.04,9]hexatriaconta-16,24,26,28-tetraene-2,3,10,14,20-pentaone]: the “proliferation of huCART19 cells compared with no RAD001” value in the data set with huCART19 cells (0.0032 and 0.016 nM RAD001, 4 day co-culture with Nalm-6) is reported as “proliferation was higher than observed without the addition of RAD001”. The “expansion of huCART19 cells” value in the data set on huCART19 cells (less than 0.016 nM of RAD001, 4 day co-culture with Nalm-6, 1:1) is listed as “expanded”. Besides, in the data set on huCART19 cells (low doses of RAD001, cell culture system), the “proliferation of CAR-expressing, transduced T cells” value is recorded as “enhanced”. Further, the “CAR T cell proliferation in vivo” value in the data set with huCAR19 CAR T cells (RAD001 0.003 mg/kg daily, huCTL019) is recorded as “enhancement in CAR T cell proliferation, above the normal level of huCAR19 proliferation”. For the same compound, in the data set with huCAR19 CAR T cells (lowest doses of RAD001), the “enhanced proliferation of CD4+ CAR T cells compared with CD8+ CAR T cells” value was “more evident and prolonged”; the “proliferation of CD8+ CAR T cells” value was “enhanced proliferation can be seen at early time points”. The “proliferation of the CAR T cells in vivo” value in the data set with huCAR19 CAR T cells (lowest doses of RAD001, daily oral) is on record as “enhanced proliferation”. Further, in the data set on NALM6-luc tumors, the “growth of NALM6-luc tumors” value is recorded as “did not have an impact”. Also, the “concentration of RAD001” value in data set [1] (24 hours after the final dose of RAD001) is “above 10 nM”. In addition, in data set [1] (NSG, mouse, whole blood, day 0, 24 hours after dosing, lowest dose tested (0.3 mg/kg), oral), the concentration at 24 h is > 10 nM. For the same compound, the “RAD001 concentration in the blood” value in data set [1] (day 14, 24 hours after dosing, lowest dose tested (0.3 mg/kg), oral) was “above 10 nm”. The “stability in the blood” value in data set [1] (tumor bearing mice) is on record as “fairly stable”.
